Results taken from PubChem BioAssay (NCI).
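Five concentrations, 48 hours, 96-well plates. GI50: concentration for 50% inhibition of growth. TGI: total growth inhibition.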

Experiments:
Assay in all cases: growth of human tumour cells (NCI), 48 h
MALME-3M melanoma = test system: MALME-3M melanoma
MCF7 breast = test system: MCF7 breast
UO-31 renal = test system: UO-31 renal
UACC-62 melanoma = test system: UACC-62 melanoma
SK-MEL-2 melanoma = test system: SK-MEL-2 melanoma
KM12 colon = test system: KM12 colon
OVCAR-8 ovarian = test system: OVCAR-8 ovarian
NCI-H23 lung = test system: NCI-H23 lung
COLO 205 colon = test system: COLO 205 colon
HOP-92 NSCLC = test system: HOP-92 NSCLC

| Structure (SMILES) | GI50 (MALME-3M melanoma) [µM] | TGI (MALME-3M melanoma) [µM] | GI50 (MCF7 breast) [µM] | TGI (MCF7 breast) [µM] | GI50 (UO-31 renal) [µM] | TGI (UO-31 renal) [µM] | GI50 (UACC-62 melanoma) [µM] | TGI (UACC-62 melanoma) [µM] | GI50 (SK-MEL-2 melanoma) [µM] | TGI (SK-MEL-2 melanoma) [µM] | GI50 (KM12 colon) [µM] | TGI (KM12 colon) [µM] | GI50 (OVCAR-8 ovarian) [µM] | TGI (OVCAR-8 ovarian) [µM] | GI50 (NCI-H23 lung) [µM] | TGI (NCI-H23 lung) [µM] | GI50 (COLO 205 colon) [µM] | TGI (COLO 205 colon) [µM] | TGI (HOP-92 NSCLC) [µM] |
| --- | --- | --- | --- | --- | --- | --- | --- | --- | --- | --- | --- | --- | --- | --- | --- | --- | --- | --- | --- |
| COc1ccc(-c2nn(-c3cccc(NC(=O)c4ccc(N5CCOCC5)c(C(F)(F)F)c4)c3)cc2-c2ccncc2)cc1Cl | 5.05 | > 50 | 3.11 | > 50 | 20.8 | > 50 | 8.69 | > 50 | 16.3 | > 50 | 2.11 | > 50 | 4.47 | > 50 | 29.9 | > 50 | 4.25 | > 50 | – |
| O=C1C2Nc3ccccc3SC2C(=O)N1c1ccccc1C(F)(F)F (stereo not given) | – | > 100 | – | – | – | > 100 | – | > 100 | – | > 100 | – | > 100 | – | > 100 | – | 60.3 | – | – | > 100 |
| O=C(O)CCSC(=O)Nc1ccc(N=Nc2ccccc2)cc1 | – | > 100 | – | – | – | > 100 | – | > 100 | – | – | – | > 100 | – | > 100 | – | > 100 | – | > 100 | > 100 |
| CC1=C(C(=O)Nc2ccc([N+](=O)[O-])cc2)C(c2ccccc2F)C(C(=O)Nc2ccc([N+](=O)[O-])cc2)=C(C)N1 | – | 42.6 | – | – | – | 51.7 | – | – | – | 24.7 | – | 53.9 | – | > 100 | – | 44.4 | – | 29.7 | 31.1 |
| COc1ccc2nc(NC(=O)C(=O)C(C#N)c3ccc(Cl)c(Cl)c3)sc2c1 (stereo not given) | – | > 100 | – | – | – | > 100 | – | > 100 | – | > 100 | – | > 100 | – | > 100 | – | > 100 | – | > 100 | > 100 |
| Cc1cccc2nc3cccc(C(=O)NCCN(C)C)c3nc12 | – | – | – | – | – | 1.56 | – | 2.42 | – | 2.96 | – | 77.3 | – | 15.8 | – | 3.47 | – | 3.14 | 4.12 |
| O=C(NS(=O)(=O)c1ccccc1)C(Cc1ccccc1)C(Cc1ccccc1)C(=O)NS(=O)(=O)c1ccccc1 (stereo not given) | – | > 100 | – | – | – | > 100 | – | > 100 | – | > 100 | – | > 100 | – | > 100 | – | > 100 | – | > 100 | > 100 |
| CN1CC(=O)N(C)c2nc[nH]c2C1=O | – | > 100 | – | – | – | > 100 | – | > 100 | – | – | – | > 100 | – | > 100 | – | > 100 | – | > 100 | – |
| CC12Oc3ccc4ccccc4c3CC1Cc1c(ccc3ccccc13)O2 (stereo not given) | – | 17 | – | – | – | > 100 | – | – | – | > 100 | – | > 100 | – | > 100 | – | > 100 | – | > 100 | 11 |
| O=C1OC(OCC#CCOC2OC(=O)C(Cl)=C2Cl)C(Cl)=C1Cl (stereo not given) | – | – | – | 21.8 | – | 24 | – | 38.3 | – | 32.2 | – | 39.3 | – | 20.8 | – | 40.9 | – | – | – |
| CC1(C)OC(=O)C=C([O-])O1.CC1(C)OC(=O)C=C([O-])O1.CC[O-].CC[O-].[Ti+4] | > 100 | > 100 | – | – | > 100 | > 100 | > 100 | > 100 | > 100 | > 100 | > 100 | > 100 | > 100 | > 100 | > 100 | > 100 | > 100 | > 100 | – |
| O=C(CC1C(=O)Nc2ccccc2S1=O)Nc1ccc(Cl)cc1 (stereo not given) | – | > 100 | – | – | – | > 100 | – | > 100 | – | > 100 | – | > 100 | – | > 100 | – | > 100 | – | > 100 | 83.4 |
